This assay deals with T1, Syk (Homo sapiens, UniProt P43405).
T1 construct: purchased BPS Bioscience, CA, USA
Put plainly: Syk enzyme assay (SYK flash plate assay / Caliper mobility shift). Format: biochemical. The method, then: The kinase assay is performed either as 384-well Flashplate assay (for e.g. Topcount measurement) or as 384-well Image-Flashplate assay (for LEADseeker measurement).
2.5 nM SYK, 400 nM Biotin-Aha-Aha-KEDPDYEWPSAKK
and 10 μM ATP (spiked with 0.3 μCi 33P-ATP/well) are incubated in a total volume of 50 μl (60 mM Hepes, 10 mM MgCl2, 1.2 mM Dithiothreitol, 0.02% Brij35, 0.1% BSA, pH 7.5) with or without test compound for 1 hours at 30° C. The reaction is stopped with 25 μl 200 mM EDTA. After 30 Min at 30° C. the liquid is removed and each well washed thrice with 100 μl 0.9% sodium chloride solution. Non-specific reaction is determined in presence of 0.1 μM Staurosporine. Radioactivity is measured with Topcount (when using Flashplates) or with LEADseeker (when using Image-Flashplates) respectively. Results (e.g. IC50-values) are calculated with program tools provided by the IT-department (e.g. Symyx Assay Explorer, Genedata Screener). Enzymatic Assays Using the Caliper LifeSciences Technology
The assays described here are performed on the Caliper Life Sciences LC3000 system This technology provides data on enzyme activity via measurement of the relative amounts of phosphorylated or unphosphorylated fluorescently labelled substrate peptide at the end of an enzymatic reaction. These different states of peptide are resolved by applying a potential difference across the sample. The presence of the charged phosphate group on the product (as opposed to the substrate) causes a different peptide mobility between the two peptides. This is visualized by excitation of the fluorescent label on the substrate and product peptides and represented as peaks within the analysis software.
In order to measure inhibitor activity of kinase inhibitors on this technology, a TTP Mosquito liquid handling instrument is used to place 0.25 ul of the appropriate concentration of inhibitor in 100% DMSO (for a dose response curve calculation) into each well of a 384-well plate. To this reaction components are added to a final volume of 25 ul. The table below indicates the sequences and concentrations for the assays described in this report. Standard components are 1 mM DTT (Sigma, D0632), 1 mM MgCl2 (Sigma, M1028), 100 mM HEPES pH 7.5 (Calbiochem, 391338), 0.015% Brij-35 (Sigma, B4184).
The reaction is incubated for 90 min at 25 C, and then stopped by the addition of 70 ul of Stop buffer (100 mM HEPES pH 7.5, 0.015% Brij-35, 10 mM EDTA (Sigma, E7889)).
The plate is read on a Caliper LC 3000 in an Off-Chip mobility shift assay format, on a 12-sipper chip. Unphosphorylated substrate and phosphorylated product peptide resolve as separate peaks allowing direct measurement of percentage of conversion of substrate to product. The percent conversion can be plotted against concentration of inhibitor to produce a sigmoidal dose response curve, from which an IC50 can be calculated using GeneData Condoseo or a similar product.

pIC50: −log10 of the molar value.

`CNC(=O)c1cccc(-c2ccnc3cc(-c4cc(OC)c(OC)c(OC)c4)oc23)c1` [Compound A7, N-Methyl-3-[2-(3,4,5-trimethoxy-phenyl)-furo[3,2-b]pyridin-7-yl]-benzamide]: the pIC50 – broadly, the negative decadic logarithm of the IC50, by convention in mol/L – is greater than 6.52.

With `COc1cc(-c2cc3nccc(-c4cccc(C(=O)NCCN(C)C)c4)c3o2)cc(OC)c1OC` [Compound A8, N-(2-Dimethylamino-ethyl)-3-[2-(3,4,5-trimethoxy-phenyl)-furo[3,2-b]pyridin-7-yl]-benzamide], the negative logarithm of the IC50 (pIC50) is greater than 6.52.

Regarding `COC(=O)c1cccc(-c2ccnc3cc(-c4cc(OC)c(OC)c(OC)c4)oc23)c1` [Compound A11, 3-[2-(3,4,5-Trimethoxy-phenyl)-furo[3,2-b]pyridin-7-yl]-benzoic acid methyl ester], the pIC50 was 5.52 to 6.52.

With `COc1cc(-c2cc3nccc(-c4ccc(C#N)cc4)c3o2)cc(OC)c1OC` [Compound A12, 4-[2-(3,4,5-Trimethoxy-phenyl)-furo[3,2-b]pyridin-7-yl]-benzonitrile], the pIC50 was 4.30 to 5.52.

On to `COc1cc(-c2cc3nccc(-c4cccc5ncccc45)c3o2)cc(OC)c1OC` [Compound A18, 5-[2-(3,4,5-Trimethoxy-phenyl)-furo[3,2-b]pyridin-7-yl]-quinoline], for which the pIC50 was 5.52 to 6.52.

For `COc1cc(-c2cc3nccc(-c4ccccc4C)c3o2)cc(OC)c1OC` [Compound A21, 7-o-Tolyl-2-(3,4,5-trimethoxy-phenyl)-furo[3,2-b]pyridine], the pIC50 is greater than 6.52.

As for `COc1cc(-c2cc3nccc(-c4cccc5ccccc45)c3o2)cc(OC)c1OC` [Compound A22, 7-Naphthalene-1-yl-2-(3,4,5-trimethoxy-phenyl)-furo[3,2-b]pyridine], the pIC50 was 5.52 to 6.52.

As for `COc1cc(-c2cc3nccc(-c4ccc5ncccc5c4)c3o2)cc(OC)c1OC` [Compound A23, 6-[2-(3,4,5-Trimethoxy-phenyl)-furo[3,2-b]pyridin-7-yl]-quinoline], the pIC50 was greater than 6.52.

For `COc1cc(-c2cc3nccc(-c4ccnc5ccccc45)c3o2)cc(OC)c1OC` [Compound A24, 4-[2-(3,4,5-Trimethoxy-phenyl)-furo[3,2-b]pyridin-7-yl]-quinoline], the negative-log IC50 (pIC50) was 5.52 to 6.52.

For `COc1cc(-c2cc3nccc(-c4ccc(C)c5ncccc45)c3o2)cc(OC)c1OC` [Compound A26, 8-Methyl-5-[2-(3,4,5-trimethoxy-phenyl)-furo[3,2-b]pyridin-7-yl]-quinoline], the pIC50 was 5.52 to 6.52.

As to `COc1cc(-c2cc3nccc(-c4ccc5cc[nH]c5c4)c3o2)cc(OC)c1OC` [Compound A27, 7-(1H-Indol-6-yl)-2-(3,4,5-trimethoxy-phenyl)-furo[3,2-b]pyridine], the pIC50 was greater than 6.52.

`COc1cc(-c2cc3nccc(-c4cccc(OCc5ccccc5)c4)c3o2)cc(OC)c1OC` [Compound A31, 7-(3-Benzyloxy-phenyl)-2-(3,4,5-trimethoxy-phenyl)-furo[3,2-b]pyridine]: the pIC50 was 4.30 to 5.52.

As for `COc1cc(-c2cc3nccc(-c4ccc(C)cc4C)c3o2)cc(OC)c1OC` [Compound A32, 7-(2,4-Dimethyl-phenyl)-2-(3,4,5-trimethoxy-phenyl)-furo[3,2-b]pyridine], the negative logarithm of the IC50 (pIC50) is 5.52 to 6.52.

Consider `CCOC(=O)Cn1cc(-c2ccnc3cc(-c4cc(OC)c(OC)c(OC)c4)oc23)cn1` [Compound A33, {4-[2-(3,4,5-Trimethoxy-phenyl)-furo[3,2-b]pyridin-7-yl]-pyrazol-1-yl}-acetic acid ethyl ester], for which the negative logarithm of the IC50 (pIC50) was greater than 6.52.

For `COc1cc(-c2cc3nccc(-c4cnn(C)c4)c3o2)cc(OC)c1OC` [Compound A34, 7-(1-Methyl-1H-pyrazol-4-yl)-2-(3,4,5-trimethoxy-phenyl)-furo[3,2-b]pyridine], the pIC50 was greater than 6.52.

As for `Cc1cc(C(=O)NC(C)(C)CO)cc(-c2cc3nccc(-c4ccccc4)c3o2)c1` [Compound A43, N-(2-Hydroxy-1,1-dimethyl-ethyl)-3-methyl-5-(7-phenyl-furo[3,2-b]pyridin-2-yl)-benzamide], the pIC50 is greater than 6.52.

Values taken from patent publication US9006440B2, “Furopyridine derivatives” (Merck Patent GmbH, priority 2010, dated 2015).
